Test results as given in patent US20080026003A1, “Methods for inhibiting pain” (The General Hospital Corporation, priority 2000, published 2008).
“Also recorded” adds a separate entry of the source. Values belong to the compound of their own block, whether it stands above or below them.

Tests used:
[1] = test system: CFA inflamed hindpaw of rats; assay: Mechanical (von Frey) and thermal (radiant heat) sensitivity after Cox-2 or caspase-1 inhibitor
Description: Thermal sensitivity was assessed by applying a beam of radiant heat and recording the paw withdrawal latency (Decosterd et al., supra).

[2] = test system: CFA-induced inflammatory pain in rats; conditions: non-inflamed animals; Ji et al., 1999; cited from earlier work
VR1 protein = VR1 protein in DRG after CFA inflammation (Western blot, immunohistochemistry); assay type: in vivo, rat; conditions: for induction of VR1 after inflammation: continuous intrathecal infusion via osmotic pump, two days
Description: L4 and L5 DRGs and L4-L5 spinal cord segments were dissected. DRG and transverse spinal cord sections (20 μm) were cut and processed for immunohistochemistry using the previously described ABC method (Ji et al., Nat. Neurosci. 2:1114-1119, 1999), with polyclonal anti-p38 and phospho-p38 (1:300, New England BioLabs) and polyclonal anti-VR1 antibodies (1:5000, Kindly provided by Glaxso Welcome and Dr. David Julius). For colocalization studies, immunofluorescence was performed to analyze the double staining between antibodies reactive with phosphop38 (anti-rabbit, 1:300) and VR1 (anti-guinea pig, 1:3000, Neuromics) or P2X3 (anti-guinea pig, 1:3000, Neuromics) or NeuN (anti-mouse, 1:3000, Chemicon). This double immunofluorescence was performed as previously described (Ji et al., 2001, supra). Briefly, DRG and spinal sections were incubated with a mixture of two primary antibodies overnight at 4° C. and then incubated with a mixture of FITC- and CY3-congugated secondary antibodies (1:300, Jackson immunolab) for two hours at room temperature. A Tyramide Signal Amplification (TSA, NEN) kit was used to perform double staining with two polyclonal rabbit antibodies (phospho p38 and TrkA) as previously reported (Amaya et al., Mol. Cell Neurosci 15:331-342, 2000). The images of immunostained DRG sections were captured with a CCD camera. The intensity of immunostaining was measured with computer-assisted software (IP lab), and the number of immunoreactive neuronal profiles was counted in a blinded fashion. […] Instead, the results provide a way to evaluate differences in staining levels between control and treated animals. To prevent variations due to experimental conditions, the control and treated DRG sections were mounted on the same slides and processed under the same conditions. […]
To determine whether expression of VR1 protein in DRG neurons was induced by peripheral inflammation, the following Western blot analysis was used. […] The density of specific bands was measured and normalized with internal control bands from the loading control. […]

CFA-injected paws = assay: CFA-induced paw swelling (paw thickness); assay type: in vivo, rat; conditions: intrathecal infusion by osmotic pump started before CFA
Description: (§1) CFA-induced inflammatory pain is characterized by hyperalgesia (i.e., an increased sensitivity to a noxious stimulus) and allodynia (i.e., generation of pain by a normally innocuous stimulus). To examine the involvement of p38 activation in the DRG in inflammatory pain, 10 μl of a specific p38 inhibitor, SB 203580 (1 μg, Calbiochem), was administered into the intrathecal space (close to L4 DRG level) via an intrathecal PP10 catheter. Although p38 inhibitors have an anti-inflammatory action when delivered systematically, localized intrathecal drug administration should not affect inflammation in the paw. To obtain a sustained and stable drug infusion, an Alzet osmotic pump (seven day pump, 0.5 μl/hour) was filled with the p38-inhibitor SB 203580 (1 μg/μl) in saline, and the associated catheter of the pump was implanted intrathecally sixteen hours before CFA injection. Saline was used as vehicle control for the osmotic pump.

[3] = test system: CFA-induced inflammatory pain in rats; assay: Heat and mechanical sensitivity after intrathecal p38 inhibitor; assay type: in vivo, rat; conditions: for late phase of inflammation-induced heat hyperalgesia: 24 and 48 hours after CFA
Description: as §1
To test whether the p38 inhibitor affects basal pain sensitivity, heat and mechanical sensitivity were measured, as previously described (Ji et al., 2001, supra). Briefly, animals were habituated and basal pain sensitivity was tested before drug administration or surgery. Mechanical withdrawal threshold on the plantar surface of the hindpaw was measured with a set of von Frey hairs. […] Thermal paw withdrawal latency was measured using the Hargreaves radiant heat apparatus and averaged over three trials. […] To investigate whether the p38 inhibitor affects established inflammatory pain, SB203580 (1 μg) was intrathecally injected 48 hours after CFA injection. Pain behavior was measured 0.5, 3, and 24 hours after the inhibitor was injected.

p-p38 and VR1 = p-p38 and VR1 in DRG after intrathecal NGF; assay type: in vivo, rat; conditions: for NGF-induced VR1 increase: 1 μg co-administered with NGF twice a day for three days
Description: L4 and L5 DRGs and L4-L5 spinal cord segments were dissected. DRG and transverse spinal cord sections (20 μm) were cut and processed for immunohistochemistry using the previously described ABC method (Ji et al., Nat. Neurosci. 2:1114-1119, 1999), with polyclonal anti-p38 and phospho-p38 (1:300, New England BioLabs) and polyclonal anti-VR1 antibodies (1:5000, Kindly provided by Glaxso Welcome and Dr. David Julius). For colocalization studies, immunofluorescence was performed to analyze the double staining between antibodies reactive with phosphop38 (anti-rabbit, 1:300) and VR1 (anti-guinea pig, 1:3000, Neuromics) or P2X3 (anti-guinea pig, 1:3000, Neuromics) or NeuN (anti-mouse, 1:3000, Chemicon). This double immunofluorescence was performed as previously described (Ji et al., 2001, supra). Briefly, DRG and spinal sections were incubated with a mixture of two primary antibodies overnight at 4° C. and then incubated with a mixture of FITC- and CY3-congugated secondary antibodies (1:300, Jackson immunolab) for two hours at room temperature. A Tyramide Signal Amplification (TSA, NEN) kit was used to perform double staining with two polyclonal rabbit antibodies (phospho p38 and TrkA) as previously reported (Amaya et al., Mol. Cell Neurosci 15:331-342, 2000). The images of immunostained DRG sections were captured with a CCD camera. The intensity of immunostaining was measured with computer-assisted software (IP lab), and the number of immunoreactive neuronal profiles was counted in a blinded fashion. […] Instead, the results provide a way to evaluate differences in staining levels between control and treated animals. To prevent variations due to experimental conditions, the control and treated DRG sections were mounted on the same slides and processed under the same conditions. […] As previously reported (Ji et al., 1999, supra), every fifth section was picked from a series of consecutive DRG sections (20 μm), and four sections were included for each DRG. The percentage of immnunoreactive neuronal profiles=(number of positive stained neuronal profiles/number of total neuronal profiles)×100.
After CFA-induced inflammation, NGF is produced in the inflamed paw tissue and is retrogradely transported to the cell body of DRG neurons. NGF is critical for gene expression in DRG neurons and plays a major role in inflammatory pain (Lindsay et al., Nature 337: 362-364, 1989; and Woolf et al., Neuroscience 62:327-331, 1994). […] To determine whether NGF is required for the inflammation-induced activation of p38 and upregulation of VR1, NGF antiserum (i.p., 5 μl/g body weight, 84 mg/ml) was injected to neutralize endogenous NGF. […] Intrathecal injection of NGF (2 μg in 10 μl, twice a day for three days, Boeringer) increased both p-p38 levels and VR1 levels in DRG neurons. […]

[4] = test system: CFA-induced inflammatory pain in rats; assay: Heat and mechanical sensitivity after intrathecal p38 inhibitor; assay type: in vivo, rat; conditions: intrathecal 1 μg 24 hours after CFA treatment; tested 0.5, 3 and 24 hours
Cox-2 mRNA [5] = assay: Cox-2 mRNA in isolated spinal cord slice in vitro; assay type: cell-based, rat; conditions: 200 ng/ml; in vitro spinal cord slice
Description: Two mechanisms may contribute to central Cox-2 induction in response to peripheral inflammation: 1) sensory inflow from nerve fibers innervating the inflamed hindpaw or 2) circulating pro-inflammatory cytokines. To determine whether primary sensory neuron activity increases central Cox-2, an isolated adult rat spinal cord slice preparation with an attached dorsal root was analyzed (FIG. 5A). To prepare this spinal cord slice, the lumbar spinal cord from an adult rat under urethane anesthesia was removed and immersed in cold Kreb's solution. A 700-μm-thick transverse slice with attached L4 dorsal root (15-20 mm) was prepared and perfused with Kreb's solution saturated with 95% O2 and 5% CO2 at 36-37° C. (Baba et al., J Neurosci 19:859, 1999). The L4 dorsal root was electrically stimulated for 30 minutes using a suction electrode at 20 μA (0.05 ms, 50 Hz) for Aβ-fibers, 100 μA (0.05 ms, 50 Hz) for […] 1000 μA (0.5 ms, 50 Hz) for C-fibers. The slices were perfused with Kreb's solution for two hours before electrical stimulation, and for three hours after stimulation.

Cox-2 mRNA [6] = assay: Cox-2 mRNA in lumbar spinal cord after intraplantar CFA (RNase protection assay); assay type: in vivo, rat
Description: The extent of Cox-2 induction in the central nervous system following unilateral hindpaw inflammation evoked by complete Freund's adjuvant (CFA) was investigated. CFA (100 μl, Sigma) was injected into the left rat hindpaw of rats anaesthetized with 2% halothane. The level of Cox-2 mRNA was measured using RNase protection assays which were performed on total RNA extracts from spinal cord samples using the RPA III kit (Ambion). […] At least two assays were used for each observation, and the fold change in Cox-2 mRNA levels was determined with respect to a β-actin loading control.
To further support the role of central IL-1β in induction of Cox-2, the effect of inhibiting IL-1β activity was determined.

p38 and ERK = assay: MAP kinase phosphorylation in primary DRG neuron cultures; assay type: cell-based, rat; conditions: culture
Description: To investigate the intracellular signaling pathway that leads to the increase in Cox-2 mRNA in the DRG neurons following treatment with IL-1β, the activation of the NFκ-B transcription factor and members of the MAP kinase family in primary DRG neurons was studied. […] Phosphorylated p38 and ERK were visualized by standard Western blot analysis and immunohistochemistry 30 minutes after administration of 10 ng/ml IL-1β to the culture medium (FIG. 12).
After CFA-induced inflammation, NGF is produced in the inflamed paw tissue and is retrogradely transported to the cell body of DRG neurons. NGF is critical for gene expression in DRG neurons and plays a major role in inflammatory pain (Lindsay et al., Nature 337: 362-364, 1989; and Woolf et al., Neuroscience 62:327-331, 1994). […] To determine whether NGF is required for the inflammation-induced activation of p38 and upregulation of VR1, NGF antiserum (i.p., 5 μl/g body weight, 84 mg/ml) was injected to neutralize endogenous NGF. […] Intrathecal injection of NGF (2 μg in 10 μl, twice a day for three days, Boeringer) increased both p-p38 levels and VR1 levels in DRG neurons. […] To test whether NGF acts via p38 to upregulate VR1, the p38 inhibitor SB203580 (1 μg) was co-administrated with NGF (twice a day for three days).

PGE2 = PGE2 levels in cerebrospinal fluid after CFA inflammation (enzyme-immunoassay); assay type: in vivo, rat; conditions: for decrease of PGE2 levels in the cerebrospinal fluid: intrathecal
[7] = intrathecal 30 μg, 48 hours after CFA-induced inflammation
[8] = intrathecal infusion before CFA
[9] = intrathecal infusion before CFA, listed as SB 203580
[10] = intrathecal 2 μg twice a day for three days

Compound: CS(=O)(=O)Nc1ccc([N+](=O)[O-])cc1OC1CCCCC1 [NS398]
reduction of mechanical hyperalgesia [1, 7]: 4.2 fold | thermal hyperalgesia [1, 7]: significantly reduced | mechanical or thermal pain sensitivity in naive rats ([1]; naive rats): did not alter

Compound: COc1cccc(-c2cc(=O)c3ccccc3o2)c1N [PD98059]
basal pain sensitivity [2]: no significant change

Compound: C[S+]([O-])c1ccc(-c2nc(-c3ccncc3)c(-c3ccc(F)cc3)[nH]2)cc1 (stereo not shown) [SB203580]
induction of VR1 after inflammation (VR1 protein): inhibited; also recorded: blocked | induction of VR1 after inflammation (VR1 protein; listed as SB 203580): decreased | CFA-induced upregulation of VR1 protein (Western blot) (VR1 protein; intrathecal 1 μg twice a day for two days, at two days): blocked | CFA-induced swelling, based on paw thickness (CFA-injected paws): does not change | CFA-induced swelling, based on paw thickness (CFA-injected paws; listed as SB 203085): did not reduce | established inflammatory pain ([3]; 1 μg intrathecal after CFA, 0.5 hours post-injection): did not affect | heat hyperalgesia ([3]; 1 μg intrathecal after CFA, 24 hours post-injection): completely reversed | heat hyperalgesia ([3]; 1 μg intrathecal after CFA, three hours post-injection): started to decrease | inflammatory heat hyperalgesia ([3]; intrathecal bolus 1 μg twice a day for two days, first 30 minutes prior to CFA): decreased | mechanical allodynia [3, 8]: did not significantly affect | late phase of inflammation-induced heat hyperalgesia [3, 8]: alleviated | late phase of inflammation-induced heat hyperalgesia [3, 9]: reduced | mechanical allodynia [3, 9]: did not affect | heat and mechanical sensitivity in non-inflamed rats ([3]; non-inflamed rats, intrathecal): Neither heat nor mechanical sensitivity in non-inflamed rats was affected | early phase of inflammatory pain ([3]; six hour time point, intrathecal infusion before CFA): did not change | NGF-induced VR1 increase (p-p38 and VR1): significantly suppressed | NGF-induced VR1 increase (p-p38 and VR1; listed as 203580): blocked | inflammatory heat hyperalgesia [4]: delayed inhibition

Compound: IL-1ra: recombinant IL-1β receptor antagonist (IL-1ra)
activity-evoked Cox-2 mRNA induction (Cox-2 mRNA [5]): did not affect | reduction of Cox-2 mRNA levels (Cox-2 mRNA [6]; intrathecal 6 μg 30 minutes prior to CFA injection, six hours post-inflammation): 75%

The next lines start with results.

p38 activation in adult primary DRG neurons grown in culture (p38 and ERK): induced
Compound: NGF: nerve growth factor, a known pain mediator, injected intrathecally
VR1 levels in DRG neurons (p-p38 and VR1; [10]): increases | p-p38 levels in DRG neurons (p-p38 and VR1; [10]): increases

reduction of the levels of central PGE2 (PGE2; intrathecal pretreatment 1 nmole, 12 and 24 hours post-inflammation): 50% | decrease of PGE2 levels in the cerebrospinal fluid (PGE2; 12 hours post inflammation): 50% | decrease of PGE2 levels in the cerebrospinal fluid (PGE2; 24 hours post-inflammation): 70% | block of the induction of spinal Cox-2 mRNA (Cox-2 mRNA [6]; 30 minute intrathecal pretreatment, 1 nmole (0.5 μg), six hours after peripheral inflammation): 65%
Compound: acetyl-Tyr-Val-Ala-Asp-CHO [YVAD]
normalizing mechanical sensitivity ([1]; intrathecal 1 nmol, CFA inflammation): 12 fold | thermal withdrawal latency of the CFA inflamed hindpaw ([1]; intrathecal 1 nmol, compared with vehicle): did not significantly affect | mechanical threshold of the CFA inflamed hindpaw ([1]; intrathecal 1 nmol, compared with vehicle, p<0.05): increased
